Assay results: US20250163002A1, “FUSED QUINONOXIME IMIDAZOLE, ONIUM DERIVATIVES THEREOF, PREPARATION AND USE THEREOF” (SHANGHAI JIAO TONG UNIVERSITY, priority 2022, published 2025)

Tests used:
[1] = tested on: A549; assay: In vitro inhibition test for cancer cell proliferation (MTT), A549; type: cell-based; settings: unit inferred
[2] = tested on: HeLa; assay: In vitro inhibition test for cancer cell proliferation (MTT), HeLa; type: cell-based; settings: 24 h or 48 h after addition, unit inferred
[3] = tested on: MCF-7; assay: In vitro inhibition test for cancer cell proliferation (MTT), MCF-7; type: cell-based; settings: unit inferred
[4] = tested on: L929; assay: In vitro cell proliferation inhibition test (MTT), L929; type: cell-based; settings: unit inferred
[5] = tested on: non-small cell lung cancer cell H460; assay: In vitro proliferation inhibition, H460; type: cell-based; settings: unit inferred
Procedure: (§1) Test method: pancreatic cancer cells CFPAC-1 were cultured in a Dalbeco-improved Eagle medium with the addition of 10% FBS and 5% double-antibody. CFPAC-1 cancer cells were inoculated into a 96-well plate for incubation for 24 h; in the following day, test compounds having various concentrations of (100, 20, 10, 1, 0.1, 0.01, and 0.001 μM) and positive control agents were added per well; corresponding volume of fresh medium was added to blank control. After addition for 24 h or 48 h, cell proliferation was evaluated by chromogenic reaction of MTT formazan.
(§2) In addition, compounds (I), (II), (III), and (IV) of the present invention have good inhibition activity against the proliferation of other cancer cells, including non-small cell lung cancer cell (H460, H1299), liver tumor cell (HepG2), rectal cancer cell (HT29), leukemia cell (CCRF-CEM), prostate cancer cell (PC-3), ovarian carcinoma cell (SKOV-3), melanoma cell (A375), myeloma cell (RPMI-8226), esophageal carcinoma cell (TE-1), pancreatic cancer cell (CFPAC-1, PANC-1, SW1990, ASPC-1, and BXPC-3), bladder cancer cell (5637), and gastric cancer cell (KATO-III).

[6] = tested on: non-small cell lung cancer cell H1299; assay: In vitro proliferation inhibition, H1299; type: cell-based; settings: unit inferred
Procedure: as §1, §2

[7] = tested on: liver tumor cell HepG2; assay: In vitro proliferation inhibition, HepG2; type: cell-based; settings: unit inferred
Procedure: as §1, §2

[8] = tested on: rectal cancer cell HT29; assay: In vitro proliferation inhibition, HT29; type: cell-based; settings: unit inferred
Procedure: as §1, §2

[9] = tested on: leukemia cell CCRF-CEM; assay: In vitro proliferation inhibition, CCRF-CEM; type: cell-based; settings: unit inferred
Procedure: as §1, §2

[10] = tested on: prostate cancer cell PC-3; assay: In vitro proliferation inhibition, PC-3; type: cell-based; settings: unit inferred
Procedure: as §1, §2

[11] = tested on: ovarian carcinoma cell SKOV-3; assay: In vitro proliferation inhibition, SKOV-3; type: cell-based; settings: unit inferred
Procedure: as §1, §2

[12] = tested on: melanoma cell A375; assay: In vitro proliferation inhibition, A375; type: cell-based; settings: unit inferred
Procedure: as §1, §2

[13] = tested on: myeloma cell RPMI-8226; assay: In vitro proliferation inhibition, RPMI-8226; type: cell-based; settings: unit inferred
Procedure: as §1, §2

[14] = tested on: esophageal carcinoma cell TE-1; assay: In vitro proliferation inhibition, TE-1; type: cell-based; settings: unit inferred
Procedure: as §1, §2

[15] = tested on: pancreatic cancer cells CFPAC-1; assay: In vitro proliferation inhibition, CFPAC-1; type: cell-based; settings: unit inferred
Procedure: as §1, §2

[16] = tested on: pancreatic cancer cell PANC-1; assay: In vitro proliferation inhibition, PANC-1; type: cell-based; settings: unit inferred
Procedure: as §1, §2

[17] = tested on: pancreatic cancer cell SW1990; assay: In vitro proliferation inhibition, SW1990; type: cell-based; settings: unit inferred
Procedure: as §1, §2

[18] = tested on: pancreatic cancer cell ASPC-1; assay: In vitro proliferation inhibition, ASPC-1; type: cell-based; settings: unit inferred
Procedure: as §1, §2

[19] = tested on: pancreatic cancer cell BXPC-3; assay: In vitro proliferation inhibition, BXPC-3; type: cell-based; settings: unit inferred
Procedure: as §1, §2

[20] = tested on: bladder cancer cell 5637; assay: In vitro proliferation inhibition, 5637; type: cell-based; settings: unit inferred
Procedure: as §1, §2

[21] = tested on: gastric cancer cell KATO-III; assay: In vitro proliferation inhibition, KATO-III; type: cell-based; settings: unit inferred
Procedure: as §1, §2

[22] = tested on: CFPAC-1 pancreatic cancer cells; assay: In vivo inhibition test of cancer cell proliferation, CFPAC-1 transplant; set-up: species or system Balb/c naked mouse; settings: 7 mg/kg, once every other three days, 7 times; gross tumor volume
Procedure: Test method: 3×10^7 CFPAC-1 pancreatic cancer cells were transplanted to subcutaneous tissues of armpit of a Balb/c naked mouse; administration was conducted when the tumor grew to 50-100 mm^3, 100-200 mm^3, and greater than 200 mm^3; the mouse was administered once every other three days, 7 times in total, and 7 mg/kg each time. Normal saline was injected in the control group. Tumor length and diameter were measured by calipers and weight of the moue was weighed until the next day of the final administration. Gross tumor volume was calculated by the following equation:
gross tumor volume (mm^3)=½×[short diameter (mm)]^2×long diameter (mm)

**Q.** With C=CCON=C1c2ccccc2C(=O)c2c1[n+](C)cn2C [Compound 132, (E) and (Z)-4-((allyloxy)imino)-1,3-dimethyl-9-oxo-4,9-dihydro-1H-naphthol[2,3-d]imidazole-3-iodide] as the compound, how does the IC50 ([1]; 24 h or 48 h after addition) read?
**A.** 0.06 µM

**Q.** And the IC50 [2]?
**A.** 46.3 µM

**Q.** And the IC50 ([3]; 24 h or 48 h after addition)?
**A.** 56.1 µM

**Q.** And the IC50 ([4]; 24 h or 48 h after addition)?
**A.** 2.4 µM

**Q.** For “(E) and (Z)-4-(butoxyimino)-1,3-dimethyl-9-oxo-4,9-dihydro-1H-naphthol[2,3-d] [Compound 128]”, which IC50 ([1]; 24 h or 48 h after addition) is on record?
**A.** 0.004 µM

**Q.** And the IC50 [2]?
**A.** 4.8 µM

**Q.** And the IC50 ([3]; 24 h or 48 h after addition)?
**A.** 2.9 µM

**Q.** What about the IC50 ([4]; 24 h or 48 h after addition) of the same compound?
**A.** 6.5 µM

**Q.** What about the IC50 [5] of the same compound?
**A.** 0.14 µM

**Q.** What about the IC50 [6] of the same compound?
**A.** 0.17 µM

**Q.** What about the IC50 [7] of the same compound?
**A.** 0.02 µM

**Q.** What about the IC50 [8] of the same compound?
**A.** 9.8 µM

**Q.** And the IC50 [9]?
**A.** 0.53 µM

**Q.** And the IC50 [10]?
**A.** 8.8 µM

**Q.** And the IC50 [11]?
**A.** 0.08 µM

**Q.** What about the IC50 [12] of the same compound?
**A.** 1.66 µM

**Q.** What about the IC50 [13] of the same compound?
**A.** 78.9 µM

**Q.** What about the IC50 [14] of the same compound?
**A.** 0.009 µM

**Q.** What about the IC50 [15] of the same compound?
**A.** 0.008 µM

**Q.** What about the IC50 [16] of the same compound?
**A.** 0.1 µM

**Q.** And the IC50 [17]?
**A.** 0.009 µM

**Q.** What about the IC50 [18] of the same compound?
**A.** 0.008 µM

**Q.** What about the IC50 [19] of the same compound?
**A.** 0.006 µM

**Q.** And the IC50 [20]?
**A.** 0.01 µM

**Q.** And the IC50 [21]?
**A.** 0.009 µM

**Q.** And the “proliferation inhibition activity / inhibition ratio” value [22]?
**A.** 100%

**Q.** For Cn1c[n+](C)c2c1C(=O)c1cc3ccccc3cc1C2=NOCc1ccc([N+](=O)[O-])cc1 [Compound 151, (E) and (Z)-1,3-dimethyl-4-(((4-nitrobenzyl)oxy)imino)-11-oxo-4,11-dihydro-1H-anthracene[2,3-d]imidazole-3-iodide], which IC50 ([1]; 24 h or 48 h after addition) is on record?
**A.** 0.12 µM

**Q.** And the IC50 [2]?
**A.** 56.8 µM

**Q.** What about the IC50 ([3]; 24 h or 48 h after addition) of the same compound?
**A.** 78.8 µM

**Q.** And the IC50 ([4]; 24 h or 48 h after addition)?
**A.** 89.6 µM

**Q.** What does the source list for CCCCn1c[n+](C)c2c1C(=O)c1ccccc1/C2=N\O [Compound 94, (E)-1-butyl-4-(hydroxylimino)-3-methyl-9-oxo-4,9-dihydro-1H-naphthol[2,3-d]imidazole-3-iodide]?
**A.** IC50 ([1]; Homo sapiens, A549, 24 h or 48 h after addition): 0.67 µM; IC50 ([2]; Homo sapiens, HeLa): 1.43 µM; IC50 ([3]; Homo sapiens, MCF7, 24 h or 48 h after addition): 0.84 µM; IC50 ([4]; Mus musculus, L929, 24 h or 48 h after addition): 39.2 µM

**Q.** What does the source list for CCn1c[n+](C)c2c1C(=O)c1ccccc1/C2=N\O [Compound 92, (E)-1-ethyl-4-(hydroxylimino)-3-methyl-9-oxo-4,9-dihydro-1H-naphthol[2,3-d]imidazole-3-iodide]?
**A.** IC50 ([1]; 24 h or 48 h after addition): 0.54 µM; IC50 [2]: 1.63 µM; IC50 ([3]; 24 h or 48 h after addition): 0.94 µM; IC50 ([4]; 24 h or 48 h after addition): 13.5 µM

**Q.** Which IC50 ([1]; 24 h or 48 h after addition) does the source give for C[n+]1cn(-c2cccc(F)c2)c2c1/C(=N/O)c1ccccc1C2=O [Compound 110, (E)-1-(3-fluorophenyl)-4-(hydroxylimino)-3-methyl-9-oxo-4,9-dihydro-1H-naphthol[2,3-d]imidazole-3-iodide] here?
**A.** 17.2 µM

**Q.** What about the IC50 [2] of the same compound?
**A.** 49 µM

**Q.** And the IC50 ([3]; 24 h or 48 h after addition)?
**A.** 42.3 µM

**Q.** What about the IC50 ([4]; 24 h or 48 h after addition) of the same compound?
**A.** > 100 µM
